Test results: US3966944A, “10 (N-methyl-4-piperidylidene)-10H[1]-benzopyrano[3,2-b]-pyridine as an analgesic, anti-inflammatory and agent against type III hypersensitivity disease” (Abbott Laboratories, priority 1975, dated 1976)

Assays:
[1] = test system: reverse passive Arthus reaction; assay: Reverse Passive Arthus Reaction (inhibition of the inflammatory lesion area); conditions: for % Inhibition of the Inflammatory Lesion Area: lesion excised 4 hours after Anti-B.S.A.
mice = assay: Analgesic Activity - Mouse Writhing Method (0.5% acetic acid IP); format: in vivo; conditions: for Ave. No. of Writhes/Mouse (±S.D.): 20 minute period, control saline 34.8 (8.8)
Protocol: Analgesic Activity of 10 (N-Methyl-4-Piperidylidene)-10H[1]-Benzopyrano[3,2-b]-Pyridine -- Mouse Writhing Method
Modified method of Whittle (Brit. J. Pharmacol. 1964, 22:246) -- Groups of 5 mice administered various dose-levels of the compound 30 minutes prior to the IP injection of 0.5% acetic acid (0.4 ml). Writhing counted for a 20 minute period following the acid injection.

[2] = test system: Carrageenin Induced Rat Paw Edema; assay: Carrageenin Induced Rat Paw Edema; format: in vivo, male Sprague-Dawley rats; conditions: for % INCREASE IN PAW SIZE OVER NORMAL: 3 hr. reading, 0.5% MC control 89.3%
Protocol: Carrageenin Induced Rat Paw Edema
The carrageenin induced rat paw edema test of Winter, et al. (Proc. Soc. Exp. Biol. and Med., 1962, 111:544) and modified by Van Arman, et al. (J. Pharmacol. Exp. Therap., 1965, 150:328) is used as a primary test for anti-inflammatory activity.
Groups of male Sprague-Dawley rats weighing 160-220 grams are used to compare various dose levels of the test compound to control animals. The compound is administered orally to the respective groups 1 hour prior to a sub-plantar injection into the left hind paw with 0.1 ml of a 1.5% suspension of carrageenin in saline. The paws are measured volumetrically by mercury displacement prior to (normal paw), 1.5, 3 and 5 hours after the carrageenin injection.
Activity is calculated as the percent difference (inhibition) between the increases in paw size (edema) of the test groups compared to the control groups.

Q: “10 (N-methyl-4-piperidylidene)-10H[1]-benzopyrano[3,2-b]-pyridine [A-45637]” was tested. Which “% Inhibition of the Inflammatory Lesion Area” value ([1]; 0.75 mg/kg PO, rat) did it give?
A: 43.2%

Q: What about the “% Inhibition of the Inflammatory Lesion Area” value ([1]; 1.5 mg/kg PO, rat) of the same compound?
A: 64.4%

Q: What about the “% Inhibition of the Inflammatory Lesion Area” value ([1]; 2.5 mg/kg PO, rat) of the same compound?
A: 70.9%

Q: What about the “% Inhibition of the Inflammatory Lesion Area” value ([1]; 5 mg/kg PO, rat) of the same compound?
A: 81.2%

Q: What about the “% Inhibition of the Inflammatory Lesion Area” value ([1]; 10 mg/kg PO, rat) of the same compound?
A: 82.9%

Q: What about the “Calculated ED50 value” ([1]; PO, rat, printed limits (.07, 1.5)) of the same compound?
A: 0.78 mg/kg

Q: What about the “Ave. No. of Writhes/Mouse (±S.D.)” value (mice; 10 mg/kg oral) of the same compound?
A: 31.4 (16.7) Writhes/Mouse

Q: What about the “% Inhibition” value (mice; 10 mg/kg oral, writhing, mice) of the same compound?
A: 9.8%

Q: And the “Ave. No. of Writhes/Mouse (±S.D.)” value (mice; 20 mg/kg oral)?
A: 18.0 (8.3) Writhes/Mouse

Q: And the “% Inhibition” value (mice; 20 mg/kg oral, writhing, mice)?
A: 48.3%

Q: And the “Ave. No. of Writhes/Mouse (±S.D.)” value (mice; 40 mg/kg oral)?
A: 15.8 (8.0) Writhes/Mouse

Q: And the “% Inhibition” value (mice; 40 mg/kg oral, writhing, mice)?
A: 54.6%

Q: And the “Ave. No. of Writhes/Mouse (±S.D.)” value (mice; 80 mg/kg oral)?
A: 6.6 (4.6) Writhes/Mouse

Q: What about the “% Inhibition” value (mice; 80 mg/kg oral, writhing, mice) of the same compound?
A: 81.0%

Q: What about the ED50 (mice; P.O., mice, writhing, 95% CL (10.9-98.0)) of the same compound?
A: 29.7 mg/kg

Q: What about the “% INCREASE IN PAW SIZE OVER NORMAL” value ([2]; 2 mg/kg oral) of the same compound?
A: 66.9%

Q: And the “% INHIBITION OF EDEMA (3 HR. READING)” value ([2]; 2 mg/kg oral, rat)?
A: 25.1%

Q: What about the “% INCREASE IN PAW SIZE OVER NORMAL” value ([2]; 4 mg/kg oral) of the same compound?
A: 55.3%

Q: What about the “% INHIBITION OF EDEMA (3 HR. READING)” value ([2]; 4 mg/kg oral, rat) of the same compound?
A: 38.1%

Q: And the “% INCREASE IN PAW SIZE OVER NORMAL” value ([2]; 8 mg/kg oral)?
A: 50.0%

Q: What about the “% INHIBITION OF EDEMA (3 HR. READING)” value ([2]; 8 mg/kg oral, rat) of the same compound?
A: 44.0%

Q: What about the “% INCREASE IN PAW SIZE OVER NORMAL” value ([2]; 16 mg/kg oral) of the same compound?
A: 33.1%

Q: What about the “% INHIBITION OF EDEMA (3 HR. READING)” value ([2]; 16 mg/kg oral, rat) of the same compound?
A: 62.9%

Q: What about the ED25 ([2]; oral, rat, carrageenin paw edema, limits in parentheses) of the same compound?
A: 2.04 (0.34, 3.55)

Q: `CN(C)CCC(c1ccc(Cl)cc1)c1ccccn1` (racemic) [chlorpheninamine, reference compound] was tested. Which “activity in the reverse passive Arthus reaction” value ([1]; 10 mg/kg, P.O.) did it give?
A: completely inactive

Q: With `CN1CCC(=C2c3ccccc3C=Cc3ccccc32)CC1` [cyproheptadine, reference compound] as the compound, how does the “activity in the reverse passive Arthus reaction” value ([1]; 5 mg/kg P.O.) read?
A: completely inactive
